These results are taken from patent EP0200211A1, “Diagnostic radiopharmaceutical compounds” (THE RESEARCH FOUNDATION OF STATE UNIVERSITY OF NEW YORK, priority 1985, dated 1986).

The nature of the data set: Autoradiogram comparison of rat brain distribution of radioactivity after intravenous injection. It counts as in vivo, Sprague-Dawley male rat. As to conditions: autoradiograms at 2 and 15 minutes after injection, statement concerns the second (15 minute) autoradiogram. The source says:
• Figure 1 is an autoradiogram of rat brain distribution of radioactivity two (2) minutes after intravenous injection with a radioactive compound of the prior art. • Figure 2 is an autoradiogram of rat brain distribution of radioactivity fifteen (15) minutes after intravenous injection with a radioactive compound of the prior art. • Figure 3 is an autoradiogram of rat brain distribution of radioactivity two (2) minutes after intravenous injection with a radioactive compound of the invention. • Figure 4 is an autoradiogram of rat brain distribution of radioactivity fifteen (15) minutes after intravenous injection with a radioactive compound of the invention.
Autoradiograms were made of Sprague-Dawley male rat brains of animals that were intravenously injected with 6-[N,N-diethylamino]methyl-3,3,10,10-tetramethyl-1,2-dithia-5,8-diazacylcodecane technetium-99m complex of the invention and 10,10,13,13-tetramethyl-11,12-dithia-8,15-diazaspiro-[5.9)pentadecane-technetium-99m complex of the prior art. The autoradiograms were taken at 2 and 15 minute intervals after injection.

As to `CC1(C)CNCC2(CCCCC2)NCC(C)(C)SS1.[99Tc]` [10,10,13,13-tetramethyl-11,12-dithia-8,15-diaza spiro [5.9] pentadecane-technetium-99m complex], the “definition of the autoradiogram of rat brain” value was “lack of clear definition”.
`CCN(CC)CC1CNCC(C)(C)SSC(C)(C)CN1.[99Tc]` (centres unmarked) [6-[N,N-diethylamino]methyl-3,3,10,10-tetramethyl-1,2-dithia-5,8-diazacylcodecane technetium-99m complex]: the “definition of the autoradiogram of rat brain” value is “sharp definition obtained and retained”.
